In brackets after ≈: the same amount, converted by molar mass. Like-named read-outs stand apart in the source and are kept apart here.
What was measured:
AECO001 (ATCC25922) = experiment: MIC broth microdilution, AECO001; type: cell-based, E. coli; settings: Escherichia coli
Method in brief: (§1)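 MICs come from broth microdilution in cation-adjusted Mueller-Hinton broth, final inoculum 3×10^5–7×10^5 CFU/mL, 18-24 hours at 35° C. Levofloxacin and QC strains served as assay controls.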

[1] = system: AECO063 (ATCC25922 bearing an acrAB mutation); experiment: microbe, parasite or virus in culture; type: cell-based, E. coli; settings: Escherichia coli, ATCC25922, read-out: MIC AECO063
Method in brief: as §1

APAE001 (ATCC27853) = experiment: MIC broth microdilution, APAE001; type: cell-based, P. aeruginosa; settings: Pseudomonas aeruginosa, ATCC27853, read-out: MIC APAE001, APAE001 (ATCC27853)
Method in brief: as §1

[2] = system: APAE006 (strain of P. aeruginosa in which all efflux pumps are inactivated); experiment: microbe, parasite or virus in culture; type: cell-based; settings: Pseudomonas aeruginosa, read-out: MIC APAE006, APAE006, all efflux pumps inactivated
Method in brief: (§2)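 Minimum inhibitory concentrations followed CLSI broth microdilution guidelines: cation-adjusted Mueller-Hinton broth, 2-fold serial drug dilutions, final inoculum 3×10^5–7×10^5 CFU/mL, ambient air at 35° C. for 18-24 hours. Quality-control strains and levofloxacin monitored performance.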

[3] = system: APAE006 in the presence of 8 micrograms per milliliter of polymyxin B nonapeptide; type: cell-based, P. aeruginosa; settings: APAE006 with 8 micrograms per milliliter polymyxin B nonapeptide
Method in brief: as §2

[4] = system: AABA1060 (clinical isolate of Acinetobacter baumannii); experiment: MIC broth microdilution, AABA1060; type: cell-based; settings: Acinetobacter baumannii, read-out: MIC AABA1060
Method in brief: as §1

[5] = system: ASAU001 (laboratory strain of S. aureus, ATCC29213); experiment: MIC broth microdilution, ASAU001; type: cell-based; settings: Staphylococcus aureus, ATCC29213, read-out: MIC ASAU001
Method in brief: as §1

[6] = ATCC25922, read-out: MIC AECO001
[7] = ATCC25922, read-out: MIC AECO001 HSA AGP

Row | SMILES | MIC (AECO001 (ATCC25922); [6]) | MIC (AECO001 (ATCC25922); [7]) | MIC [1] | MIC (APAE001 (ATCC27853)) | MIC [2] | MIC APAE006 + PMBN [3] | MIC [4] | MIC [5]
1 | C[C@@H](O)[C@H](NC(=O)c1ccc(C#C/C=C/C2CC2)cc1)C(=O)NO [Example 107-3] | < 2 µg/mL | 2 to 16 µg/mL (≈ 6.09 to 48.7 µM) | < 2 µg/mL | < 2 µg/mL | < 2 µg/mL | A (MIC's of 2.0 μg/mL or less = A) | 2 to 16 µg/mL (≈ 6.09 to 48.7 µM) | 16 to 64 µg/mL (≈ 48.7 to 195 µM)
2 | CC(C)(N)[C@H](NC(=O)c1ccc(C#C/C=C/C2CC2)cc1)C(=O)NO [Example 107-4] | < 2 µg/mL | < 2 µg/mL | < 2 µg/mL | < 2 µg/mL | < 2 µg/mL | A (MIC's of 2.0 μg/mL or less = A) | < 2 µg/mL | 2 to 16 µg/mL (≈ 5.86 to 46.9 µM)
3 | CC(C)/C=C/C#Cc1ccc(C(=O)N[C@H](C(=O)NO)[C@@H](C)N)cc1 [Example 107-5] | < 2 µg/mL | 2 to 16 µg/mL (≈ 6.07 to 48.6 µM) | < 2 µg/mL | 2 to 16 µg/mL (≈ 6.07 to 48.6 µM) | < 2 µg/mL | A (MIC's of 2.0 μg/mL or less = A) | < 2 µg/mL | 2 to 16 µg/mL (≈ 6.07 to 48.6 µM)
4 | CC(C)/C=C/C#Cc1ccc(C(=O)N[C@H](C(=O)NO)C(C)(C)N)cc1 [Example 107-6] | < 2 µg/mL | 2 to 16 µg/mL (≈ 5.82 to 46.6 µM) | < 2 µg/mL | 2 to 16 µg/mL (≈ 5.82 to 46.6 µM) | < 2 µg/mL | A (MIC's of 2.0 μg/mL or less = A) | < 2 µg/mL | 16 to 64 µg/mL (≈ 46.6 to 186 µM)
5 | CC(C)(N)[C@H](NC(=O)c1ccc(/C=C/C#Cc2ccc(CNC3CC3)cc2)cc1)C(=O)NO [Example 113-6] | < 2 µg/mL | < 2 µg/mL | < 2 µg/mL | < 2 µg/mL | < 2 µg/mL | A (MIC's of 2.0 μg/mL or less = A) | < 2 µg/mL | 16 to 64 µg/mL (≈ 35.8 to 143 µM)
6 | C[C@@H](O)[C@H](NC(=O)c1ccc(/C=C/C#Cc2ccc(F)cc2)cc1)C(=O)NO [Example 114-11] | < 2 µg/mL | 16 to 64 µg/mL (≈ 41.8 to 167 µM) | < 2 µg/mL | 16 to 64 µg/mL (≈ 41.8 to 167 µM) | < 2 µg/mL | A (MIC's of 2.0 μg/mL or less = A) | 2 to 16 µg/mL (≈ 5.23 to 41.8 µM) | 16 to 64 µg/mL (≈ 41.8 to 167 µM)
7 | C[C@@H](O)[C@H](NC(=O)c1ccc(/C=C/C#Cc2ccccc2F)cc1)C(=O)NO [Example 114-12] | < 2 µg/mL | 2 to 16 µg/mL (≈ 5.23 to 41.8 µM) | < 2 µg/mL | 2 to 16 µg/mL (≈ 5.23 to 41.8 µM) | < 2 µg/mL | A (MIC's of 2.0 μg/mL or less = A) | < 2 µg/mL | 16 to 64 µg/mL (≈ 41.8 to 167 µM)
8 | C[C@@H](O)[C@H](NC(=O)c1ccc(/C=C/C#Cc2cccnc2)cc1)C(=O)NO [Example 114-13] | < 2 µg/mL | 2 to 16 µg/mL (≈ 5.47 to 43.8 µM) | < 2 µg/mL | 2 to 16 µg/mL (≈ 5.47 to 43.8 µM) | < 2 µg/mL | A (MIC's of 2.0 μg/mL or less = A) | 2 to 16 µg/mL (≈ 5.47 to 43.8 µM) | 16 to 64 µg/mL (≈ 43.8 to 175 µM)
9 | C[C@@H](O)[C@H](NC(=O)c1ccc(/C=C/C#Cc2ccccc2)cc1)C(=O)NO [Example 114-14] | < 2 µg/mL | 2 to 16 µg/mL (≈ 5.49 to 43.9 µM) | < 2 µg/mL | 2 to 16 µg/mL (≈ 5.49 to 43.9 µM) | < 2 µg/mL | A (MIC's of 2.0 μg/mL or less = A) | < 2 µg/mL | 16 to 64 µg/mL (≈ 43.9 to 176 µM)
10 | C[C@@H](N)[C@H](NC(=O)c1ccc(/C=C/C#CC2CC2)cc1)C(=O)NO [Example 114-15] | 2 to 16 µg/mL (≈ 6.11 to 48.9 µM) | 16 to 64 µg/mL (≈ 48.9 to 195 µM) | < 2 µg/mL | < 2 µg/mL | < 2 µg/mL | A (MIC's of 2.0 μg/mL or less = A) | 2 to 16 µg/mL (≈ 6.11 to 48.9 µM) | 16 to 64 µg/mL (≈ 48.9 to 195 µM)
11 | CC(C)(N)[C@H](NC(=O)c1ccc(/C=C/C#Cc2ccccc2)cc1)C(=O)NO [Example 114-16] | < 2 µg/mL | < 2 µg/mL | < 2 µg/mL | 2 to 16 µg/mL (≈ 5.3 to 42.4 µM) | < 2 µg/mL | A (MIC's of 2.0 μg/mL or less = A) | < 2 µg/mL | 16 to 64 µg/mL (≈ 42.4 to 170 µM)
12 | C[C@@H](N)[C@H](NC(=O)c1ccc(/C=C/C#CC2CCCCC2)cc1)C(=O)NO [Example 114-17] | < 2 µg/mL | 2 to 16 µg/mL (≈ 5.41 to 43.3 µM) | < 2 µg/mL | 2 to 16 µg/mL (≈ 5.41 to 43.3 µM) | < 2 µg/mL | A (MIC's of 2.0 μg/mL or less = A) | 2 to 16 µg/mL (≈ 5.41 to 43.3 µM) | 2 to 16 µg/mL (≈ 5.41 to 43.3 µM)

Reference: patent publication US9617256B2 (priority 2007, dated 2017)
